Experimental data as given in PubChem BioAssay AID1963838 (Molecular Pharmacology Branch, DTP, NCI, 2024).

System: 855422-203-R-J1-PDC complex spheroid viability
Assay: Anticancer human tumor 855422-203-R-J1-PDC patient-derived bladder carcinoma cell line growth inhibition [POLQ]
Settings: for IC50: curve of first compound; for viability, T/C: stronger effect = lower value
Method in brief: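 Growth inhibition in 3D: complex spheroids (tumor PDC, HUVEC, MSC) treated with POLQ inhibitor combinations; where Cmax unknown, highest tested concentration 10 microM, except SN-38 at 1 microM.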

[1] = second compound 0.0316 µM, first compound 0.0316 µM
[2] = second compound 0.0316 µM, first compound 0.1 µM
[3] = second compound 0.0316 µM, first compound 0.316 µM
[4] = second compound 0.0316 µM, first compound 1 µM
[5] = second compound 0.1 µM, first compound 0.0316 µM
[6] = second compound 0.1 µM, first compound 0.1 µM
[7] = second compound 0.1 µM, first compound 0.316 µM
[8] = second compound 0.1 µM, first compound 1 µM
[9] = second compound 0.316 µM, first compound 0.0316 µM
[10] = second compound 0.316 µM, first compound 0.1 µM
[11] = second compound 0.316 µM, first compound 0.316 µM
[12] = second compound 0.316 µM, first compound 1 µM
[13] = second compound 1 µM, first compound 0.0316 µM
[14] = second compound 1 µM, first compound 0.1 µM
[15] = second compound 1 µM, first compound 0.316 µM
[16] = second compound 1 µM, first compound 1 µM
[17] = second compound 3.16 µM, first compound 0.0316 µM
[18] = second compound 3.16 µM, first compound 0.1 µM
[19] = second compound 3.16 µM, first compound 0.316 µM
[20] = second compound 3.16 µM, first compound 1 µM
[21] = second compound 10 µM, first compound 0.0316 µM
[22] = second compound 10 µM, first compound 0.1 µM
[23] = second compound 10 µM, first compound 0.316 µM
[24] = second compound 10 µM, first compound 1 µM
[25] = second compound 0.0316 µM, first compound 0.00316 µM
[26] = second compound 0.0316 µM, first compound 0.01 µM
[27] = second compound 0.1 µM, first compound 0.00316 µM
[28] = second compound 0.1 µM, first compound 0.01 µM
[29] = second compound 0.316 µM, first compound 0.00316 µM
[30] = second compound 0.316 µM, first compound 0.01 µM
[31] = second compound 1 µM, first compound 0.00316 µM
[32] = second compound 1 µM, first compound 0.01 µM
[33] = second compound 3.16 µM, first compound 0.00316 µM
[34] = second compound 3.16 µM, first compound 0.01 µM
[35] = second compound 10 µM, first compound 0.00316 µM
[36] = second compound 10 µM, first compound 0.01 µM
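Also: spheroids exposed to compounds for seven days before readout.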

## CC1COCCN1c1cc(C2(S(C)(=N)=O)CC2)nc(-c2ccnc3[nH]ccc23)n1 (stereo unspecified) + Cc1cccc(N(C)C(=O)C2C(O)CCN2c2nc(C)cc(C(F)(F)F)c2C#N)c1
Second compound 0.0316 µM
  IC50: 2560 nM
Second compound 0.1 µM
  IC50: 2660 nM
Second compound 0.316 µM
  IC50: 2500 nM
Second compound 1 µM
  IC50: 2490 nM
Second compound 3.16 µM
  IC50: 2370 nM
Second compound 10 µM
  IC50: 2140 nM
[1]
  viability, T/C: 112%
[2]
  viability, T/C: 97.3%
[3]
  viability, T/C: 107%
[4]
  viability, T/C: 106%
Second compound 0.0316 µM, first compound 3.16 µM
  viability, T/C: 37.4%
Second compound 0.0316 µM, first compound 10 µM
  viability, T/C: 12.5%
[5]
  viability, T/C: 94.7%
[6]
  viability, T/C: 107%
[7]
  viability, T/C: 115%
[8]
  viability, T/C: 100%
Second compound 0.1 µM, first compound 3.16 µM
  viability, T/C: 41.1%
Second compound 0.1 µM, first compound 10 µM
  viability, T/C: 10.7%
[9]
  viability, T/C: 96.3%
[10]
  viability, T/C: 106%
[11]
  viability, T/C: 101%
[12]
  viability, T/C: 107%
Second compound 0.316 µM, first compound 3.16 µM
  viability, T/C: 36.6%
Second compound 0.316 µM, first compound 10 µM
  viability, T/C: 10.6%
[13]
  viability, T/C: 110%
[14]
  viability, T/C: 123%
[15]
  viability, T/C: 115%
[16]
  viability, T/C: 103%
Second compound 1 µM, first compound 3.16 µM
  viability, T/C: 36%
Second compound 1 µM, first compound 10 µM
  viability, T/C: 10.8%
[17]
  viability, T/C: 105%
[18]
  viability, T/C: 119%
[19]
  viability, T/C: 94.5%
[20]
  viability, T/C: 105%
Second compound 3.16 µM, first compound 3.16 µM
  viability, T/C: 31.4%
Second compound 3.16 µM, first compound 10 µM
  viability, T/C: 10.2%
[21]
  viability, T/C: 103%
[22]
  viability, T/C: 102%
[23]
  viability, T/C: 105%
[24]
  viability, T/C: 97.5%
Second compound 10 µM, first compound 3.16 µM
  viability, T/C: 25.7%
Second compound 10 µM, first compound 10 µM
  viability, T/C: 14.1%

## CC[C@@]1(O)C(=O)OCc2c1cc1n(c2=O)Cc2cc3c(CN(C)C)c(O)ccc3nc2-1 + Cc1cccc(N(C)C(=O)C2C(O)CCN2c2nc(C)cc(C(F)(F)F)c2C#N)c1
Second compound 0.0316 µM
  IC50: 29.1 nM
Second compound 0.1 µM
  IC50: 32.4 nM
Second compound 0.316 µM
  IC50: 28 nM
Second compound 1 µM
  IC50: 26.5 nM
Second compound 3.16 µM
  IC50: 26.4 nM
Second compound 10 µM
  IC50: 23.1 nM
Second compound 0.0316 µM, first compound 0.000316 µM
  viability, T/C: 102%
Second compound 0.0316 µM, first compound 0.001 µM
  viability, T/C: 97.4%
[25]
  viability, T/C: 99.8%
[26]
  viability, T/C: 82.5%
[1]
  viability, T/C: 47.7%
[2]
  viability, T/C: 13.3%
Second compound 0.1 µM, first compound 0.000316 µM
  viability, T/C: 118%
Second compound 0.1 µM, first compound 0.001 µM
  viability, T/C: 104%
[27]
  viability, T/C: 99%
[28]
  viability, T/C: 103%
[5]
  viability, T/C: 50.8%
[6]
  viability, T/C: 13.7%
Second compound 0.316 µM, first compound 0.000316 µM
  viability, T/C: 94.7%
Second compound 0.316 µM, first compound 0.001 µM
  viability, T/C: 105%
[29]
  viability, T/C: 97.5%
[30]
  viability, T/C: 99.5%
[9]
  viability, T/C: 44.1%
[10]
  viability, T/C: 14.1%
Second compound 1 µM, first compound 0.000316 µM
  viability, T/C: 99.7%
Second compound 1 µM, first compound 0.001 µM
  viability, T/C: 96.4%
[31]
  viability, T/C: 116%
[32]
  viability, T/C: 89.4%
[13]
  viability, T/C: 43%
[14]
  viability, T/C: 12.4%
Second compound 3.16 µM, first compound 0.000316 µM
  viability, T/C: 102%
Second compound 3.16 µM, first compound 0.001 µM
  viability, T/C: 100%
[33]
  viability, T/C: 113%
[34]
  viability, T/C: 94.9%
[17]
  viability, T/C: 41.6%
[18]
  viability, T/C: 11.9%
Second compound 10 µM, first compound 0.000316 µM
  viability, T/C: 97.4%
Second compound 10 µM, first compound 0.001 µM
  viability, T/C: 97.7%
[35]
  viability, T/C: 107%
[36]
  viability, T/C: 86.8%
[21]
  viability, T/C: 36%
[22]
  viability, T/C: 11.6%

## COc1cccc(OCCCN)c1-c1cc(Nc2cnc(C#N)cn2)n[nH]1 + COC1C(OC(N)=O)C(O)C(Oc2ccc3c(O)c(NC(=O)c4ccc(O)c(CC=C(C)C)c4)c(=O)oc3c2C)OC1(C)C
Second compound 0.0316 µM
  IC50: 19.4 nM
Second compound 0.1 µM
  IC50: 16 nM
Second compound 0.316 µM
  IC50: 20 nM
Second compound 1 µM
  IC50: 16 nM
Second compound 3.16 µM
  IC50: 16.1 nM
Second compound 10 µM
  IC50: 16 nM
[25]
  viability, T/C: 98.3%
[26]
  viability, T/C: 90%
[1]
  viability, T/C: 20.3%
[2]
  viability, T/C: 8.97%
[3]
  viability, T/C: 6.7%
[4]
  viability, T/C: 6.14%
[27]
  viability, T/C: 102%
[28]
  viability, T/C: 69%
[5]
  viability, T/C: 22.4%
[6]
  viability, T/C: 8.69%
[7]
  viability, T/C: 5.66%
[8]
  viability, T/C: 4.71%
[29]
  viability, T/C: 109%
[30]
  viability, T/C: 101%
[9]
  viability, T/C: 16.4%
[10]
  viability, T/C: 7.64%
[11]
  viability, T/C: 6.06%
[12]
  viability, T/C: 5.18%
[31]
  viability, T/C: 118%
[32]
  viability, T/C: 75.1%
[13]
  viability, T/C: 13.6%
[14]
  viability, T/C: 6.95%
[15]
  viability, T/C: 5.24%
[16]
  viability, T/C: 5.12%
[33]
  viability, T/C: 109%
[34]
  viability, T/C: 74.9%
[17]
  viability, T/C: 14.5%
[18]
  viability, T/C: 7.77%
[19]
  viability, T/C: 5.93%
[20]
  viability, T/C: 8.32%
[35]
  viability, T/C: 107%
[36]
  viability, T/C: 74.2%
[21]
  viability, T/C: 15%
[22]
  viability, T/C: 8.46%
[23]
  viability, T/C: 7.19%
[24]
  viability, T/C: 4.54%
